The results in this text go back to patent US20230117034A1, “PYRAZOLOTRIAZINES” (Bayer Aktiengesellschaft, priority 2019, published 2023).

Molecules are shown by their SMILES.

The subject of experiment [1] is MDA-MB-231, human breast cancer cells. The experiment can be described thus: Proliferation assay MDA-MB-231 (crystal violet, 4 days). Format: cell-based. Particulars: Homo sapiens, MDA-MB-231, 96 h, MDA-MB-231 cells, median, read-out: Prolif-MDA MB-231, IC50-[mol/l] (median). A digest of the protocol:
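Cells seeded at 4,000/well in medium with 10% FCS; after 24 h, compounds added at 0.01-10 µmol/L (0.1% DMSO) for 4 days. Glutaraldehyde-fixed, crystal violet-stained, absorbance at 595 nm normalized to zero-point plate (0%) and untreated cells (100%); IC50 by 4-parameter fit.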

For another experiment, the target named is T1, CDK2/CycE (Homo sapiens, UniProt P24941).
T1 construct: purchased ProQinase GmbH (Freiburg, Germany); host or cells: insect cells (Sf9)
Nature of the experiment: CDK2/CycE kinase assay (TR-FRET, 2 mM ATP). Particulars: 2 mM ATP (high ATP); median; read-out: CDK2/CyclinE, 2 mM ATP (high ATP), IC50 (median). Format: biochemical. A digest of the protocol: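 GST-tagged human CDK2 and CycE from Sf9 cells, about 10 ng/ml, pre-incubated 15 min at 22 °C with compound in Tris/HCl pH 8.0 buffer. Reaction with 2 mM ATP and 0.75 µM biotinylated peptide for 25 min at 22 °C. Phospho-RB antibody TR-FRET (665/620 nm ratio) read after 1 h; data normalised to no-inhibitor and no-enzyme controls.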

Experiment [2] deals with BRCA1 mRNA expression in MDA-MB-231 cells. Nature of the experiment: qRT-PCR assay: BRCA1 mRNA expression in MDA-MB-231. Format: cell-based, human. The conditions noted are these: Homo sapiens, MDA-MB-231, Inhibition of BRCA1 mRNA expression in MDA-MB-231 cells; median; read-out: RTqPCR-MDA-MB-231, IC50, BRCA1 (median). A digest of the protocol: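 Cells were seeded at 200,000 cells/well, left 24 h, then exposed continuously to test substances for 24 h. Total RNA (600 ng) was reverse-transcribed to cDNA and amplified by qPCR, and transcript levels were normalised to GAPDH housekeeping expression.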

On to `Cn1cc(-c2cnn3c(NCc4nc5c(F)c(F)ccc5[nH]4)nc(N4CCOCC4)nc23)cn1` [Example 418, N-[(4,5-difluoro-1H-benzimidazol-2-yl)methyl]-8-(1-methyl-1H-pyrazol-4-yl)-2-(morpholin-4-yl)pyrazolo[1,5-a][1,3,5]triazin-4-amine], for which the IC50 is 246 nM in experiment [1] and > 20000 nM at CDK2/CycE.

Consider `CC(C)c1cnn2c(NCc3ncc(-c4ccccc4)[nH]3)nc(N3CCCCC3)nc12` [Example 36, N-[(5-phenyl-1H-imidazol-2-yl)methyl]-2-(piperidin-1-yl)-8-(propan-2-yl)pyrazolo[1,5-a][1,3,5]triazin-4-amine], for which the IC50 was > 20000 nM on CDK2/CycE and 128 nM in experiment [2].

For `Fc1cccc(-c2nnc(CNc3nc(N4CCOCC4)nc4c(Br)cnn34)[nH]2)c1` [Example 44, 8-bromo-N-{[5-(3-fluorophenyl)-4H-1,2,4-triazol-3-yl]methyl}-2-(morpholin-4-yl)pyrazolo[1,5-a][1,3,5]triazin-4-amine], the IC50 came out at 1130 nM on CDK2/CycE and 2.95 nM in experiment [2].

Take `OC[C@H]1CCCCN1c1nc(NCc2nc3ccccc3[nH]2)n2ncc(Br)c2n1` [Example 60, [(2R)-1-(4-{[(1H-benzimidazol-2-yl)methyl]amino}-8-bromopyrazolo[1,5-a][1,3,5]triazin-2-yl)piperidin-2-yl]methanol]: the IC50 worked out at 738 nM at CDK2/CycE and 45.3 nM in experiment [2].

With `Brc1cnn2c(NCc3nc4ccccc4[nH]3)nc(N3CC4(COC4)C3)nc12` [Example 48, N-[(1H-benzimidazol-2-yl)methyl]-8-bromo-2-(2-oxa-6-azaspiro[3.3]heptan-6-yl)pyrazolo[1,5-a][1,3,5]triazin-4-amine], the IC50 was found to be 12600 nM at CDK2/CycE and 94.2 nM in experiment [2].

Regarding `CC(C)c1cnn2c(NCc3nnc(-c4ccccc4)[nH]3)nc(N(C)CC(C)(C)O)nc12` [Example 39, 2-methyl-1-{methyl[4-{[(5-phenyl-4H-1,2,4-triazol-3-yl)methyl]amino}-8-(propan-2-yl)pyrazolo[1,5-a][1,3,5]triazin-2-yl]amino}propan-2-ol], the results for the IC50 (on CDK2/CycE; in experiment [2]) were 2110 nM and 92.3 nM, respectively.

As for `CCNc1nc(NCc2nnc(-c3ccccc3)[nH]2)n2ncc(C(C)C)c2n1` [Example 38, N^2-ethyl-N^4-[(5-phenyl-4H-1,2,4-triazol-3-yl)methyl]-8-(propan-2-yl)pyrazolo[1,5-a][1,3,5]triazine-2,4-diamine], the IC50 on CDK2/CycE is 8300 nM.

Consider `Brc1cnn2c(NCc3nnc(-c4ccccn4)[nH]3)nc(N3CCOCC3)nc12` [Example 54, 8-bromo-2-(morpholin-4-yl)-N-{[5-(pyridin-2-yl)-4H-1,2,4-triazol-3-yl]methyl}pyrazolo[1,5-a][1,3,5]triazin-4-amine], for which the values for the IC50 (at CDK2/CycE; in experiment [2]) were 1890 nM and 66.2 nM, respectively.

Take `N#Cc1cccc(-c2nnc(CNc3nc(N4CCOCC4)nc4c(Br)cnn34)[nH]2)c1` [Example 55, 3-[5-({[8-bromo-2-(morpholin-4-yl)pyrazolo[1,5-a][1,3,5]triazin-4-yl]amino}methyl)-4H-1,2,4-triazol-3-yl]benzonitrile]: the IC50 is 1070 nM on CDK2/CycE and 4.76 nM in experiment [2].

Consider `Fc1ccc(-c2nnc(CNc3nc(N4CCOCC4)nc4c(Br)cnn34)[nH]2)c(F)c1` [Example 41, 8-bromo-N-{[5-(2,4-difluorophenyl)-4H-1,2,4-triazol-3-yl]methyl}-2-(morpholin-4-yl)pyrazolo[1,5-a][1,3,5]triazin-4-amine], for which the IC50 at CDK2/CycE is > 1630 nM; in experiment [2], 3670 nM.

Consider `Brc1cnn2c(NCc3nnc(-c4cccnc4)[nH]3)nc(N3CCOCC3)nc12` [Example 53, 8-bromo-2-(morpholin-4-yl)-N-{[5-(pyridin-3-yl)-4H-1,2,4-triazol-3-yl]methyl}pyrazolo[1,5-a][1,3,5]triazin-4-amine], for which the IC50 at CDK2/CycE was found to be 1680 nM; in experiment [2], 77.1 nM.

`Clc1ccc(-c2nnc(CNc3nc(N4CCOCC4)nc4c(Br)cnn34)[nH]2)cc1` [Example 45, 8-bromo-N-{[5-(4-chlorophenyl)-4H-1,2,4-triazol-3-yl]methyl}-2-(morpholin-4-yl)pyrazolo[1,5-a][1,3,5]triazin-4-amine]: the IC50 at CDK2/CycE was determined as 5370 nM; in experiment [2], 99 nM.

As for `Brc1cnn2c(NCc3nc4ccccc4[nH]3)nc(N3CCCCC3)nc12` [Example 46, N-[(1H-benzimidazol-2-yl)methyl]-8-bromo-2-(piperidin-1-yl)pyrazolo[1,5-a][1,3,5]triazin-4-amine], the IC50 at CDK2/CycE came to 1850 nM; in experiment [2], 12.5 nM.

Regarding `FC(F)(F)c1cccc(-c2nnc(CNc3nc(N4CCOCC4)nc4c(Br)cnn34)[nH]2)c1` [Example 52, 8-bromo-2-(morpholin-4-yl)-N-({5-[3-(trifluoromethyl)phenyl]-4H-1,2,4-triazol-3-yl}methyl)pyrazolo[1,5-a][1,3,5]triazin-4-amine], the IC50 on CDK2/CycE was 2650 nM; in experiment [2], 26 nM.

As for `Cc1cccc(-c2nnc(CNc3nc(N4CCOCC4)nc4c(Br)cnn34)[nH]2)c1` [Example 40, 8-bromo-N-{[5-(3-methylphenyl)-4H-1,2,4-triazol-3-yl]methyl}-2-(morpholin-4-yl)pyrazolo[1,5-a][1,3,5]triazin-4-amine], the IC50 worked out at 2110 nM at CDK2/CycE and 14.6 nM in experiment [2].

Turning to `Clc1cccc(-c2nnc(CNc3nc(N4CCOCC4)nc4c(Br)cnn34)[nH]2)c1` [Example 51, 8-bromo-N-{[5-(3-chlorophenyl)-4H-1,2,4-triazol-3-yl]methyl}-2-(morpholin-4-yl)pyrazolo[1,5-a][1,3,5]triazin-4-amine], the IC50 on CDK2/CycE was found to be 1640 nM; in experiment [2], 5.8 nM.

As to `C[C@H]1COCCN1c1nc(NCc2nc3ccccc3[nH]2)n2ncc(Br)c2n1` [Example 57, N-[(1H-benzimidazol-2-yl)methyl]-8-bromo-2-[(3S)-3-methylmorpholin-4-yl]pyrazolo[1,5-a][1,3,5]triazin-4-amine], the IC50 at CDK2/CycE was 1220 nM; in experiment [2], 1.52 nM.

As for `CC1(C)CN(c2nc(NCc3nc4ccccc4[nH]3)n3ncc(Br)c3n2)CCO1` [Example 58, N-[(1H-benzimidazol-2-yl)methyl]-8-bromo-2-(2,2-dimethylmorpholin-4-yl)pyrazolo[1,5-a][1,3,5]triazin-4-amine], the IC50 on CDK2/CycE was found to be 10700 nM; in experiment [2] it was 49 nM.

Consider `CC(C)c1cnn2c(NCc3nnc(-c4ccccc4)[nH]3)nc(N3CCN(C)CC3)nc12` [Example 37, 2-(4-methylpiperazin-1-yl)-N-[(5-phenyl-4H-1,2,4-triazol-3-yl)methyl]-8-(propan-2-yl)pyrazolo[1,5-a][1,3,5]triazin-4-amine], for which the IC50 on CDK2/CycE was > 15300 nM.

Turning to `Brc1cnn2c(NCc3nc4ccccc4[nH]3)nc(N3CCCC3)nc12` [Example 47, N-[(1H-benzimidazol-2-yl)methyl]-8-bromo-2-(pyrrolidin-1-yl)pyrazolo[1,5-a][1,3,5]triazin-4-amine], the IC50 came out at 4660 nM at CDK2/CycE and 23.2 nM in experiment [2].

Regarding `C[C@@H]1COCCN1c1nc(NCc2nc3ccccc3[nH]2)n2ncc(Br)c2n1` [Example 56, N-[(1H-benzimidazol-2-yl)methyl]-8-bromo-2-[(3R)-3-methylmorpholin-4-yl]pyrazolo[1,5-a][1,3,5]triazin-4-amine], the values for the IC50 (on CDK2/CycE; in experiment [2]) were 2020 nM and 21.8 nM, respectively.

For the compound `OC[C@@H]1CCCCN1c1nc(NCc2nc3ccccc3[nH]2)n2ncc(Br)c2n1` [Example 59, [(2S)-1-(4-{[(1H-benzimidazol-2-yl)methyl]amino}-8-bromopyrazolo[1,5-a][1,3,5]triazin-2-yl)piperidin-2-yl]methanol], the IC50 was 1050 nM at CDK2/CycE and 30.5 nM in experiment [2].

For the compound `CC(C)c1cnn2c(NCc3ncc(-c4ccccc4)[nH]3)nc(N(C)CC(C)(C)O)nc12` [Example 35, 2-methyl-1-{methyl[4-{[(5-phenyl-1H-imidazol-2-yl)methyl]amino}-8-(propan-2-yl)pyrazolo[1,5-a][1,3,5]triazin-2-yl]amino}propan-2-ol], the values for the IC50 (on CDK2/CycE; in experiment [2]) were 1700 nM and 39 nM, respectively.

As for `Brc1cnn2c(NCc3nnc(-c4ccccc4)[nH]3)nc(N3CCCCC3)nc12` [Example 49, 8-bromo-N-[(5-phenyl-4H-1,2,4-triazol-3-yl)methyl]-2-(piperidin-1-yl)pyrazolo[1,5-a][1,3,5]triazin-4-amine], the IC50 at CDK2/CycE worked out at 2290 nM; in experiment [2] it was 69.2 nM.

On to `N#Cc1cnn2c(NCc3nc4ccccc4[nH]3)nc(N3CCOCC3)nc12` [Example 43, 4-{[(1H-benzimidazol-2-yl)methyl]amino}-2-(morpholin-4-yl)pyrazolo[1,5-a][1,3,5]triazine-8-carbonitrile], for which the IC50 at CDK2/CycE is > 20000 nM; in experiment [2] it was 69.9 nM.

Regarding `COc1cccc(-c2nnc(CNc3nc(N4CCOCC4)nc4c(Br)cnn34)[nH]2)c1` [Example 50, 8-bromo-N-{[5-(3-methoxyphenyl)-4H-1,2,4-triazol-3-yl]methyl}-2-(morpholin-4-yl)pyrazolo[1,5-a][1,3,5]triazin-4-amine], the IC50 at CDK2/CycE is 2330 nM; in experiment [2], 18.2 nM.
